Source: patent US20230404928A1, “NANOCAPSULE AND USES THEREOF” (CHINA MEDICAL UNIVERSITY, priority 2022, published 2023)

Experiments:
[1] = tested on: neural precursor cells (NPCs); assay: Ki-67 immunohistochemistry of brain sections (NPC proliferation, SVZ and HDG); assay type: in vivo, mice; settings: SVZ and HDG areas, versus saline control
Excerpt: FIGS. 9A to 9D show representative images of Ki-67 staining after MTDS with MN treatment in comparison with saline control, free rt-PA, MTDS in SVZ area (FIG. 9A) and HDG area (FIG. 9B). (Scale bar=50 μm). Quantitative data of NPCs by immunohistochemistry staining in SVZ area (FIG. 9C) (Ki-67^+ cells) and HDG area (FIG. 9D) (Ki-67^+ cells).
The subventricular zone (SVZ) and hippocampal dentate gyrus (DG) are known to trigger the activation of resting neural precursor cells (NPCs) when the brain suffers from ischemic injury. NPCs mainly reside in the SVZ, while the DG has the ability to differentiate into a range of neurons and glial cells.

MACO mice = assay: thrombolysis time and cerebral blood flow after MCAO; assay type: in vivo
[2] = as above; assay type: in vivo, mice; settings: thrombus not completely dissolved
[3] = drug release behavior study (rtPA release); assay type: physicochemical; settings: in the first hour
Experimental: To measure the loading of rtPA (rtPA-FANC=(MTDS)) in FANC, analysis using […] protein analysis (BCA) was performed. The encapsulation efficiency (EE) of rtPA in FANC is 73.94% and the loading capacity (LC) is 22.49%. To observe the rtPA release rate of FANC, further drug release behavior studies were conducted. […] This slower release behavior can effectively protect rtPA from metabolic effects and reduce the damage caused in the blood circulation system.

## recombinant tissue-type plasminogen activator [rtPA]
[1]
  number of Ki-67^+ cells: no significant difference
MACO mice; FIG. 8a, right MCA images
  thrombolytic activity: able to dissolve the thrombus
MACO mice; rtPA 10 mg kg^−1
  time to partial thrombolysis: approximately 80 minutes
MACO mice; within 120 minutes, rtPA 10 mg kg^−1
  blood flow restored (CBF): approximately 80%
[2]
  CBF recovery, maximum: ≤ 90%
[3]
  rtPA release: more than 60%
